Data taken from patent publication EP2818472A1, “Imidazo[4,5-c]pyridine and pyrrolo[3,2-c]pyridine compounds as G-protein-coupled receptor kinase 5 (GRK5) modulators” (Max-Planck-Gesellschaft zur Förderung der Wissenschaften …, priority 2013, dated 2014).

These compounds were tested on beta-TC6 cells (assay: Insulin HTRF assay (relative activity Ar) in beta-TC6 cells). Settings: Mus musculus, Beta-TC6, 4 h, insulin HTRF, supernatant of beta-TC6 cells, incubation with test compound at 37°C for 2, 3, 4h; read-out: Ar (relative activity).
Assay type: cell-based, mouse
Procedure, shortened: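 beta-TC6 cells (15k/well, seeded 24 or 48 h) washed, then exposed to compound in induction buffer (0.5% DMSO final) for 2, 3 or 4 h at 37°C.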

First: COCCNc1nc2cnc(-c3ccc(S(C)(=O)=O)cc3)cc2n1C [Compound 648, N-(2-methoxyethyl)-1-methyl-6-(4-methylsulfonylphenyl)imidazo[4,5-c]pyridin-2-amine]
Second: COCCNc1nc2cnc(-c3ccccc3C)cc2n1C [Compound 770, N-(2-methoxyethyl)-1-methyl-6-(o-tolyl)imidazo[4,5-c]pyridin-2-amine]
The Emax of the first is higher: 30 to 50% for the first, 0 to 30% for the second.

`Cn1c(-c2ccccc2)cc2c(Nc3ccc(C(N)=O)cc3)nccc21` [Compound 325, 4-[(1-methyl-2-phenyl-pyrrolo[3,2-c]pyridin-4-yl)amino]benzamide] and `CN(C)C(=O)c1ccc(-c2cc3c(Nc4ccccn4)nccc3n2C)cc1` [Compound 219, N,N-di methyl-4-[1-methyl-4-(2-pyridylamino)pyrrolo[3,2-c]pyridin-2-yl]benzamide] fall in the same range of Emax: 30 to 50% for the first, 30 to 50% for the second.

First: CC(=O)c1cccc(Nc2cc3c(cn2)nc(C)n3C)c1 [Compound 698, 1-[3-[(1,2-dimethylimidazo[4,5-c]pyridin-6-yl)amino]phenyl]ethanone]
Second: CC(=O)c1cccc(Nc2cc3c(cn2)cc(-c2cnn(C)c2)n3C)c1 [Compound 150, 1-[3-[[1-methyl-2-(1-methylpyrazol-4-yl)pyrrolo[3,2-c]pyridin-6-yl]amino]phenyl]ethanone]
The Emax of the first is lower: 30 to 50% for the first, 50 to 100% for the second.

`CC(=O)N(C)c1cccc(-c2cc3cnc(N4CCOCC4)cc3n2C)c1` [Compound 171, N-methyl-N-[3-(1-methyl-6-morpholino-pyrrolo[3,2-c]pyridin-2-yl)phenyl]acetamide] and `COc1ccc(Nc2cc3c(cn2)cc(-c2cccc(N(C)C(C)=O)c2)n3C)cc1OC` [Compound 160, N-[3-[6-(3,4-dimethoxyanilino)-1-methyl-pyrrolo[3,2-c]pyridin-2-yl]phenyl]-N-methyl-acetamide] fall in the same range of Emax: 50 to 100% for the first, 50 to 100% for the second.

`CNc1nc2cnc(-c3ccc(S(C)(=O)=O)cc3)cc2n1-c1cccc(F)c1` [Compound 684, 1-(3-fluorophenyl)-N-methyl-6-(4-methylsulfonylphenyl)imidazo[4,5-c]pyridin-2-amine] and `CNc1nc2cnc(Nc3ccc(C#N)cc3)cc2n1-c1cccc(F)c1` [Compound 686, 4-[[1-(3-fluorophenyl)-2-(methylamino)imidazo[4,5-c]pyridin-6-yl]amino]benzonitrile] fall in the same range of Emax: 30 to 50% for the first, 30 to 50% for the second.

`Cn1cc(-c2cc3c(cn2)nc(NCc2ccccc2)n3C)cn1` [Compound 624, N-benzyl-1-methyl-6-(1-methylpyrazol-4-yl)imidazo[4,5-c]pyridin-2-amine] and `CN(C)C(=O)c1ccc(Nc2cc3c(cn2)nc(NCc2ccccc2)n3C)cc1` [Compound 626, 4-[[2-(benzylamino)-1-methyl-imidazo[4,5-c]pyridin-6-yl]amino]-N,N-dimethyl-benzamide] fall in the same range of Emax: 30 to 50% for the first, 30 to 50% for the second.

Compared with `CNc1nc2cnc(-c3cccc(C(=O)NCCN(C)C)c3)cc2n1Cc1ccccc1` [Compound 793, 3-[1-benzyl-2-(methylamino)imidazo[4,5-c]pyridin-6-yl]-N-(2-dimethylaminoethyl)benzamide], `CNc1nc2cnc(Nc3ccc4c(c3)OCO4)cc2n1Cc1ccccc1` [Compound 534, N6-(1,3-benzodioxol-5-yl)-1-benzyl-N2-methyl-imidazo[4,5-c]pyridine-2,6-diamine] is higher in Emax: 0 to 30% for the first, 50 to 100% for the second.

Compared with `CC(=O)N(C)c1cccc(-c2cc3c(Nc4ccc(OC(F)(F)F)cc4)nccc3n2C)c1` [Compound 248, N-methyl-N-[3-[1-methyl-4-[4-(trifluoromethoxy)anilino]pyrrolo[3,2-c]pyridin-2-yl]phenyl]acetamide], `Cn1c(-c2cccc(F)c2)cc2cnc(Nc3ccc(O)cc3)cc21` [Compound 17, 4-[[2-(3-fluorophenyl)-1-methyl-pyrrolo[3,2-c]pyridin-6-yl]amino]phenol] is higher in Emax: 0 to 30% for the first, 50 to 100% for the second.

Compared with `NC(=O)c1ccc(Nc2nccc3[nH]c(-c4cccc(F)c4)nc23)cc1` [Compound 403, 4-[[2-(3-fluorophenyl)-1H-imidazo[4,5-c]pyridin-4-yl]amino]benzamide], `COc1ccc(Nc2nccc3[nH]c(-c4ccc(OC)cc4)nc23)cc1` [Compound 395, N,2-bis(4-methoxyphenyl)-1H-imidazo[4,5-c]pyridin-4-amine] is higher in Emax: 30 to 50% for the first, 50 to 100% for the second.

First: CS(=O)(=O)c1ccc(Nc2cc3c(cn2)ncn3CC2CC2)cc1 [Compound 696, 1-(cyclopropylmethyl)-N-(4-methylsulfonylphenyl)imidazo[4,5-c]pyridin-6-amine]
Second: Cn1cncc1-c1cc2cnc(Nc3ccc(F)cc3)cc2[nH]1 [Compound 106, N-(4-fluorophenyl)-2-(3-methylimidazol-4-yl)-1H-pyrrolo[3,2-c]pyridin-6-amine]
The Emax of the first is lower: 30 to 50% for the first, 50 to 100% for the second.

First: CSc1ccc(Nc2cc3c(cn2)cc(-c2cnn(C)c2)n3C)cc1 [Compound 153, 1-methyl-2-(1-methylpyrazol-4-yl)-N-(4-methylsulfanylphenyl)pyrrolo[3,2-c]pyridin-6-amine]
Second: CC(=O)Nc1ccc(Nc2cc3c(cn2)cc(-c2cnn(C)c2)n3C)cc1 [Compound 126, N-[4-[[1-methyl-2-(1-methylpyrazol-4-yl)pyrrolo[3,2-c]pyridin-6-yl]amino]phenyl]acetamide]
The Emax of the first is lower: 30 to 50% for the first, 50 to 100% for the second.

Compared with `CS(=O)(=O)Nc1cccc(Nc2cc3[nH]c(-c4cccc(F)c4)cc3cn2)c1` [Compound 13, N-[3-[[2-(3-fluorophenyl)-1H-pyrrolo[3,2-c]pyridin-6-yl]amino]phenyl]methanesulfonamide], `CN(C)C(=O)c1ccc(-c2cc3cnc(Nc4cccc(O)c4)cc3[nH]2)cc1` [Compound 31, 4-[6-(3-hydroxyanilino)-1H-pyrrolo[3,2-c]pyridin-2-yl]-N,N-dimethyl-benzamide] is higher in Emax: 50 to 100% for the first, over 100% for the second.

First: OCCNc1nccc2[nH]c(-c3ccc4c(c3)OCCO4)nc12 [Compound 416, 2-[[2-(2,3-dihydro-1,4-benzodioxin-6-yl)-1H-imidazo[4,5-c]pyridin-4-yl]amino]ethanol]
Second: COc1ccc(Nc2nccc3[nH]c(-c4ccncc4)nc23)cc1O [Compound 432, 2-methoxy-5-[[2-(4-pyridyl)-1H-imidazo[4,5-c]pyridin-4-yl]amino]phenol]
The Emax of the first is lower: 30 to 50% for the first, over 100% for the second.

`COc1cccc(Nc2cc3c(cn2)nc(-c2ccc(OC)c(OC)c2)n3C)c1` [Compound 718, 2-(3,4-dimethoxyphenyl)-N-(3-methoxyphenyl)-1-methyl-imidazo[4,5-c]pyridin-6-amine] and `CNc1nc2cnc(Nc3ccc(OC)c(OC)c3)cc2n1Cc1ccco1` [Compound 520, N6-(3,4-dimethoxyphenyl)-1-(2-furylmethyl)-N2-methyl-imidazo[4,5-c]pyridine-2,6-diamine] fall in the same range of Emax: 50 to 100% for the first, 50 to 100% for the second.

First: CC(C)Oc1ccc(Nc2cc3[nH]c(-c4cccnc4)cc3cn2)cc1 [Compound 81, N-(4-isopropoxyphenyl)-2-(3-pyridyl)-1H-pyrrolo[3,2-c]pyridin-6-amine]
Second: CN(C)C(=O)c1ccc(-c2cc3cnc(Nc4cccc(N(C)C)c4)cc3[nH]2)cc1 [Compound 27, 4-[6-[3-(dimethylamino)anilino]-1H-pyrrolo[3,2-c]pyridin-2-yl]-N,N-dimethyl-benzamide]
The Emax of the first is lower: 30 to 50% for the first, 50 to 100% for the second.

Compared with `COc1cc(-c2cc3c(cn2)ncn3Cc2ccc(OC)c(OC)c2)ccc1O` [Compound 739, 4-[1-[(3,4-dimethoxyphenyl)methyl]imidazo[4,5-c]pyridin-6-yl]-2-methoxy-phenol], `CNc1nc2cnc(Nc3ccc(NC(C)=O)cc3)cc2n1Cc1ccc(OC)c(OC)c1` [Compound 661, N-[4-[[1-[(3,4-dimethoxyphenyl)methyl]-2-(methylamino)imidazo[4,5-c]pyridin-6-yl]amino]phenyl]acetamide] is higher in Emax: 30 to 50% for the first, 50 to 100% for the second.

First: CNc1nc2cnc(Nc3cc(OC)c(OC)c(OC)c3)cc2n1Cc1ccc(OC)c(OC)c1 [Compound 660, 1-[(3,4-dimethoxyphenyl)methyl]-N2-methyl-N6-(3,4,5-trimethoxyphenyl)imidazo[4,5-c]pyridine-2,6-diamine]
Second: CNc1nc2cnc(Nc3cccc(C)c3)cc2n1CCN1CCOCC1 [Compound 556, N2-methyl-1-(2-morpholinoethyl)-N6-(m-tolyl)imidazo[4,5-c]pyridine-2,6-diamine]
The Emax of the first is higher: 50 to 100% for the first, 30 to 50% for the second.

Compared with `c1ccc(Cn2cnc3c(NCc4cccs4)nccc32)cc1` [Compound 452, 1-benzyl-N-(2-thienylmethyl)imidazo[4,5-c]pyridin-4-amine], `CNc1nc2cnc(Nc3cccc(N(C)C)c3)cc2n1-c1ccccc1` [Compound 508, N6-[3-(dimethylamino)phenyl]-N2-methyl-1-phenyl-imidazo[4,5-c]pyridine-2,6-diamine] is higher in Emax: 30 to 50% for the first, 50 to 100% for the second.

`Cn1c(NCC2CC2)nc2cnc(-c3ccsc3)cc21` [Compound 596, N-(cyclopropylmethyl)-1-methyl-6-(3-thienyl)imidazo[4,5-c]pyridin-2-amine] and `CNc1nc2cnc(-c3cccnc3)cc2n1Cc1cccnc1` [Compound 563, N-methyl-6-(3-pyridyl)-1-(3-pyridylmethyl)imidazo[4,5-c]pyridin-2-amine] fall in the same range of Emax: 50 to 100% for the first, 50 to 100% for the second.

First: COc1ccc(Nc2nccc3[nH]c(-c4ccsc4)cc23)c(OC)c1 [Compound 251, N-(2,4-dimethoxyphenyl)-2-(3-thienyl)-1H-pyrrolo[3,2-c]pyridin-4-amine]
Second: COc1ccccc1-c1cc2c(Nc3cccc(NS(C)(=O)=O)c3)nccc2[nH]1 [Compound 298, N-[3-[[2-(2-methoxyphenyl)-1H-pyrrolo[3,2-c]pyridin-4-yl]amino]phenyl]methanesulfonamide]
The Emax of the first is lower: 30 to 50% for the first, 50 to 100% for the second.

Compared with `CN1CCN(c2ccc(Nc3cc4c(cn3)cc(-c3ccc(C(=O)N(C)C)cc3)n4C)cc2)CC1` [Compound 49, N,N-dimethyl-4-[1-methyl-6-[4-(4-methylpiperazin-1-yl)anilino]pyrrolo[3,2-c]pyridin-2-yl]benzamide], `COc1ccc(Nc2nccc3[nH]c(-c4ccc(F)c(F)c4)nc23)cc1OC` [Compound 440, 2-(3,4-difluorophenyl)-N-(3,4-dimethoxyphenyl)-1H-imidazo[4,5-c]pyridin-4-amine] is lower in Emax: 50 to 100% for the first, 30 to 50% for the second.
